Values quoted from earlier work in US20160175335A1, “ANTIFUNGAL COMBINATION THERAPY OF TAVABOROLE AND EFINACONAZOLE” (priority 2014, published 2016).

Tested on: dermatophytes, yeasts and non-dermatophyte molds
Conditions: against dermatophytes

For `C=C1CCN([C@H](C)[C@](O)(Cn2cncn2)c2ccc(F)cc2F)CC1` [Efinaconazole, ((2R,3R)-2-(2,4-difluorophenyl)-3-(4-methylenepiperidin-1yl)-1-(1H-1,2,4-triazol-1-yl)butan-2-ol)], which “effectiveness in vitro compared with other antifungal agents” value is on record?
The value was “more effective in vitro than terbinafine, itraconazole, ciclopirox and amorolfine”.
